Bounds are passed on as bounds.

For one data set, the system named is rat liver mitochondria. The experiment in a line: Accumulation of Compound 9 in isolated mitochondria (ion selective electrode). Type of data set: in vitro ADME. The procedure:
Liver mitochondria were prepared from female Wistar rats by homogenisation followed by differential centrifugation in medium containing 250 mM sucrose, 10 mM Tris-HCL (pH 7.4) and 1 mM EGTA (Chappell, J. B. and Hansford, R. G., In: Subcellular components: preparation and fractionation (Ed. Birnie G D), pp. 77-91. Butterworths, London, 1972, which is incorporated herein by reference.)
An ion selective electrode for compound 9 was prepared by standard procedures (Kamo, N., et al., Journal of Membrane Biology, 49, 105-121 (1979) and Davey, G. P., et al., Biochemical Journal, 288, 439-443 (1992), which are incorporated herein by reference), and activated by soaking in 100 μM compound 9 for 1-3 days. The electrodes were then inserted into an air-tight chamber of an oxygen electrode enabling simultaneous measurement of oxygen consumption and compound 9, as shown in FIG. 1.
The rat liver mitochondria (2 mg protein/ml) were suspended in KCl medium (120 mM KCl, 10 mM HEPES, pH 7.2, 1 mM EGTA) with additions of rotenone (5 μg/ml) and nigericin (0.6 nM) in a stirred 3 ml system at 30° C. Compound 9 was titrated in 1 μM increments (from 650 to 730s on FIG. 1) and the response of the electrode measured over 0-5 μM of Compound 9. This response was logarithmic with respect to the concentration of Compound 9.
To energise the mitochondria, the respiratory substrate succinate (5 mM) was added (at 800s on FIG. 1). These conditions are known to generate a mitochondrial membrane potential of about 180 mV (Burns, et al., Arch Biochem Biophys, 332,60-68 (1995); Burns and Murphy, Arch Biochem Biophys, 339, 33-39 (1997), which are incorporated herein by reference).

In a further data set the test system is xanthine oxidase. The experiment in a line: Control experiments for inhibition of xanthine oxidase. In kind it is biochemical.
In another data set the test system is superoxide. The experiment in a line: Standard assay for superoxide dismutase activity (xanthine oxidase/hypoxanthine, acetylated cytochrome c reduction, A550). Type of data set: biochemical. On the procedure:
To see if Compound 9 is catalytically active as a superoxide dismutase mimetic, a standard assay for superoxide dismutase activity was used (Boveris, A., Methods Enzymol., 105, 429-435 (1984), which is incorporated herein by reference).
The incubation conditions were 50 mM KPi, pH 7.5; 1 mM EGTA; 100 μM DTPA (N,N-bis(2-bis[carboxymethyl]amino)ethyl) glycine) at 30° C. to which was added 0.1 unit/ml xanthine oxidase and acetylated cytochrome c (50 μM). After incubation for 2 min, the background rate was measured for 1 min then hypoxanthine (100 μM) was added to initiate superoxide formation (point X in FIG. 2), which provides a continual flux. The rate of superoxide formation is measured by the rate at which the superoxide reduced cytochrome c(III) to cytochrome c(II), which leads to an increase in light absorption at 550 nm (A550). SOD activity causes the superoxide to be converted to hydrogen peroxide thereby decreasing the rate of reduction of cytochrome c (III). In FIG. 2, the initial rate of reduction of cytochrome c (III) can be seen (line A) and on addition of compound 9 (250 nM) this rate of cytochrome c reduction was decreased due to consumption of the superoxide by compound 9 (line B).
The above experiments were repeated using various concentrations of Compound 9 and the native superoxide dismutase (Cu, Zn SOD) in order to compare their activity.

Chain of xanthine oxidase (P47989 whole entry, species assumed): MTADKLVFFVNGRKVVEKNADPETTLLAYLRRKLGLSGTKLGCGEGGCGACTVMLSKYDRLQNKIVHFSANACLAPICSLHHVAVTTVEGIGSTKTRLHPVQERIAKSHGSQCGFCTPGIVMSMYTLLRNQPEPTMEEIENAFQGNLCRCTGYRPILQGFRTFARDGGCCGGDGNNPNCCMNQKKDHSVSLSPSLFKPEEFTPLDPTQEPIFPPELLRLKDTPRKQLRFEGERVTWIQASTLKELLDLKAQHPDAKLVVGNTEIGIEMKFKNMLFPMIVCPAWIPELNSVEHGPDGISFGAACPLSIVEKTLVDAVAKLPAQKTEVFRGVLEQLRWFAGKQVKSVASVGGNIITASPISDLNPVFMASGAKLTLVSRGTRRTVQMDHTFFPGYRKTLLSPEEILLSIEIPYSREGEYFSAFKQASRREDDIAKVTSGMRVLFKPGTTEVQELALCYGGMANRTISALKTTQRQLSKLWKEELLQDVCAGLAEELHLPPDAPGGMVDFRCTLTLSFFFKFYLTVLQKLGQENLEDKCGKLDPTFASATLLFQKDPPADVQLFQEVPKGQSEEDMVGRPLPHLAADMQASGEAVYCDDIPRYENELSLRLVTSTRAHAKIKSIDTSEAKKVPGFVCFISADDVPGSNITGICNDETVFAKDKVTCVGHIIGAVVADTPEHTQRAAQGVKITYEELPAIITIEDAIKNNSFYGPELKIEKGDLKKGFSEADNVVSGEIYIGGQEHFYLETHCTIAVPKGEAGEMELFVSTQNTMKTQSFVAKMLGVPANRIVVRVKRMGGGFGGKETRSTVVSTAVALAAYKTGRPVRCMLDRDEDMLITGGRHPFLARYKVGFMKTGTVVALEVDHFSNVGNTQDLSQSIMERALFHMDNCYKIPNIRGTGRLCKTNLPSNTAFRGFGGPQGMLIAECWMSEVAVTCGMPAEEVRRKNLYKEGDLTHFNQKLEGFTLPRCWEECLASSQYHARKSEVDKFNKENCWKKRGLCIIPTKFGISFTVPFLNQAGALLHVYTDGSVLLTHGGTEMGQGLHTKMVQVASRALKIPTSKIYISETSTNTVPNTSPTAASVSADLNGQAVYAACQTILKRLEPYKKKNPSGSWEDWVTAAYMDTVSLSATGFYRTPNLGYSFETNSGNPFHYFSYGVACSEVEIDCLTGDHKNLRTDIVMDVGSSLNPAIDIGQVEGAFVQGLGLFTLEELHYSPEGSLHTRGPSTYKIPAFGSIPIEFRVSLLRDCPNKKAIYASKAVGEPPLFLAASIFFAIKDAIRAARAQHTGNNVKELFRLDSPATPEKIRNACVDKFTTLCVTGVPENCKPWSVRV

For `[Cl-].[Cl-].[Cl-].[Mn+2].c1ccc([P+](CCCSc2cc3nc(c2)CNC2CCCCC2NCCNC2CCCCC2NC3)(c2ccccc2)c2ccccc2)cc1` [Compound 9, Manganese(II) dichloro((4R, 9R, 14R, 19R)-24-(3-triphenylphosphoniopropane-1-thio)-3, 10, 13, 20, 26-pentaazatetracyclo[20.3.1.0.^4,9.0^14,19]hexacosa-1 (26),-22(23),24-triene) chloride], the “time for reversal of accumulation on addition of the uncoupler FCCP” value in the data set on rat liver mitochondria (FCCP 332 nM added to dissipate the membrane potential) is given as below 10 s. In the data set on rat liver mitochondria (energised (succinate 5 mM) rat liver mitochondria 2 mg protein/ml, KCl medium pH 7.2, 30° C., 0-5 μM compound), the “concentration of the compound within mitochondria” value is recorded as “about 1.25 nmol/mg protein”. In addition, the “accumulation by energised mitochondria” value with rat liver mitochondria (energised rat liver mitochondria, membrane potential about 180 mV) is reported as around 500 fold. In addition, the “concentration of compound outside the mitochondria after energising with succinate” value in the data set with rat liver mitochondria (succinate 5 mM added, FIG. 1) is “falls rapidly”. Further, the “inhibition of the activity of xanthine oxidase” value with xanthine oxidase is reported as “does not inhibit”. For the same molecule, the “rate of cytochrome c reduction” value in the data set on superoxide (compound 9 at 250 nM, FIG. 2 line B versus control line A) is “decreased”. For the same molecule, the “SOD activity of 1 nmol compound expressed as activity of the native enzyme CuZnSOD” value in the data set on superoxide (per 1 nmol Compound 9, various concentrations, FIG. 3) is reported as “about 1 unit”.

The record behind these values is patent US6984636B2, “Mitochondrially targeted antioxidants” (Medical Research Council, priority 2002, dated 2006).
